The source of these data is US4298739A, “Novel carbostyril derivatives” (priority 1977, dated 1981).

One may read the inhibition as the change of the read-out against control, counted positive when it falls.

Values joined by “and” are separate entries in the source; they are usually repeats but may differ in a detail not shown here. Equal entries are not always repeated.

Series [1] has as its system rabbit platelet. In words: Collagen-induced aggregation in rabbit platelets (AG-II Aggregometer). More on the design: inhibition: dose or concentration left out as unconfirmed. In kind it is cell-based. The settings on record: Oryctolagus cuniculus, Platelet, read-out: Inhibition effect on collagen induced aggregation in rabbit platelet. Put shortly:
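Rabbit citrated PRP, diluted with PPP to 300,000/mm^3 platelets for ADP or 450,000/mm^3 for collagen, was preincubated with compound 1 min at 37° C. before inducer was added. ADP at 7.5×10^-5 M or collagen supernatant in Auren Beronal buffer pH 7.35; transmittance change recorded, percent inhibition derived.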

Series [2] is described as follows: Concentration in blood of male Wister rats. In kind it is in vivo. Particulars: 30 mg/kg water suspension, 30 mg/kg; for Concentration in blood: Rat. The method, then: (§1) A water suspension of test compound was administered at the dose of 30 mg/kg to the overnight fasted male Wister rats and male beagle dogs, and after a predetermined period of time, blood was collected from said animals to obtain plasma. 2 to 3 Milliliters of 0.1 N-NaOH and 2 ml of CHCl3 were added to 1 ml of the obtained plasma, and the mixture was shaken and extracted in a shaker for 2 hours, and after centrifugal separation, the organic layer was washed with 2 ml of 0.1 N-HCl. This organic layer was then subjected to a freezing and thawing treatment, and after evaporating chloroform under nitrogen stream, the residue was redissolved in 100 μl of chloroform and spotted on a thin layer plate of "Silica Gel 60 F254 " manufactured by Merck & Co., Inc. This was developed in a chloroform: butanol mixed solvent (5:1) and determined by measuring the spots with same Rf value as the test compound according to the absorbance method by using Shimazu CS-910 Thin Layer Chromato-scanner,and therefrom the concentration (μg/ml) of test compound A in blood was determined.

Series [3] can be described thus: Concentration in blood of male beagle dogs. In kind it is in vivo. Particulars: 30 mg/kg water suspension, 30 mg/kg; for Concentration in blood: Beagle dog. The method, then: as §1

As for `CC(=O)OC1CCC(N(C)C(=O)CCCOc2ccc3[nH]c(=O)ccc3c2)CC1` (stereo not drawn) [compound 3, 6-{3-[N-Methyl-N-(4-acetyloxycyclohexyl)aminocarbonyl]propoxy}carbostyril], the inhibition at 100 µM (stock) in series [1] (10^-4 mole) was determined as 90.8%. Moreover, in series [1] (10^-5 mole), the inhibition at 10 µM (stock) stood at 84.8%. The inhibition at 1 µM (stock) in series [1] (10^-6 mole) was found to be 61.9%.
Take `CN(C(=O)CCCOc1ccc2[nH]c(=O)ccc2c1)C1CCCCC1` [compound 16, 6-[3-(N-Methyl-N-cyclohexylaminocarbonyl)propoxy]carbostyril]: the inhibition in series [1] turned out to be 90.5%. Further, the Concentration in blood in series [2] (1 hr., 60 min) is 1060 ng/mL and 880 ng/mL; in series [2] (4 hr., 240 min) it was 710 ng/mL and 830 ng/mL; in series [2] (12 hr., 720 min), 730 ng/mL and 780 ng/mL; in series [3] (1 hr., 60 min), 130 ng/mL; in series [3] (2 hr., 120 min), 310 ng/mL; in series [3] (6 hr., 360 min), 210 ng/mL. The Concentration in blood in series [3] (12 hr., 720 min) came out at 70 ng/mL. Also, the concentration at 1 h came out at 900 ng/mL in series [2] (rat, plasma, 1 hr.) and 230 ng/mL in series [3] (dog, plasma, 1 hr.). The molecule further came in with a concentration at 4 h in series [2] (rat, plasma, 4 hr.) of 1100 ng/mL. The concentration at 12 h in series [2] (rat, plasma, 12 hr.) came out at 640 ng/mL; in series [3] (dog, plasma, 12 hr.) it was 40 ng/mL. Moreover, the concentration at 2 h in series [3] (dog, plasma, 2 hr.) is 280 ng/mL. In series [3] (dog, plasma, 6 hr.), this molecule gave a concentration at 6 h of 110 ng/mL.
